Laboratory results reported in BindingDB's records for patent US11753403 (Pic Therapeutics, 2023).
pIC50: −log10 of the molar value.

Each compound was assayed against T1, Eukaryotic translation initiation factor 4E [28-217] (Homo sapiens, UniProt P06730) (assay: Human eIF4E/4G2 Binding Assay).
T1 construct: 28-217
Protocol: Test compounds (3.43 mM stock in DMSO) were diluted 2-fold in series in DMSO (10 concentration points). Compound solutions (1.2 μl/well) were added into black 384-well polypropylene microplates (Matrix, Thermal Scientific). Twenty-two microliters per well of Assay Buffer (50 mM NaPi, pH 6.5, 50 mM KCl, 1 mM DTT and 0.5 mg/ml gamma globulin) and eight microliters per well of 82.5 nM purified eIF4E in Assay Buffer were added. The samples were incubated at room temperature (20-23° C.) for 4 hours. Biotin labeled 4G2 peptide (Ac-Lys-Gln-Tyr-Asp-Arg-Glu-Phe-Leu-Leu-Asp-Phe-Gln-Phe-Met-Pro-Lys(Aha-Bio)-NH2, 1.75 μM stock in DMSO) was diluted to 0.14 μM in Assay Buffer (without DTT) and 5 μl/well was added. The samples were incubated at room temperature for 20 min. Five microliters per well of 6.4 nM Eu-streptavidin (Eu-SA, Perkin Elmer) and 80 nM Allophycocyanin (APC)-anti His antibody (Columbia Biosciences) in Assay Buffer (without DTT) were then added and the samples were incubated at room temperature for 20 min.

T1 sequence (P06730 28-217): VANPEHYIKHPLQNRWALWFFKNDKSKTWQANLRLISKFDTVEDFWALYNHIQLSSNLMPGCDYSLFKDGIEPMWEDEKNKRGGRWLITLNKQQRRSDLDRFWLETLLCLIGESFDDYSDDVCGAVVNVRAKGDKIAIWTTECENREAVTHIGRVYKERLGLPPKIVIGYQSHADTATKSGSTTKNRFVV

Row | pIC50 | Structure (SMILES)
1 | > 6.00 | CC(C)Cc1sc(Nc2cccc(C(=O)O)c2)nc1-c1ccc(Cl)c(Cl)c1 [US11753403, Compound I-142]
2 | < 5.00 | CC(C)Cc1sc(N(CCC(=O)NS(=O)(=O)CCCN)Cc2ccccc2)nc1-c1ccc(Cl)c(Cl)c1 [US11753403, Compound I-186]
3 | < 5.00 | CC(C)Cc1sc(N(CCC(=O)NCCO)Cc2ccccc2)nc1-c1ccc(Cl)c(Cl)c1 [US11753403, Compound I-194]
4 | < 5.00 | CC(C)Cc1sc(NCC(Cc2cccc(C(=O)NCCN)c2)C(=O)O)nc1-c1ccc(Cl)c(Cl)c1 (stereo not given) [US11753403, Compound I-204]
5 | > 6.00 | CC(C)Cc1sc(-c2ccc(NC(=O)c3ccccc3)c(C(=O)O)c2)nc1-c1ccc(Cl)c(Cl)c1 [US11753403, Compound I-237]
6 | > 6.00 | CC(C)Cc1sc(N2CCN(C(=O)c3cccc(F)c3)C(C(=O)O)C2)nc1-c1ccc(Cl)c(Cl)c1 (stereo not given) [US11753403, Compound I-247]

Continued, compound first:

Row | Structure (SMILES) | pIC50
7 | O=C(O)CCN(Cc1ccccc1)c1nc(-c2ccc(Cl)c(Cl)c2)c(CN2CCCCC2)s1 [US11753403, Compound I-90] | < 5.00
8 | CC(C)Cc1sc(N(CCS(N)(=O)=O)Cc2ccccc2)nc1-c1ccc(Cl)c(Cl)c1 [US11753403, Compound I-98] | < 5.00
9 | CC(C)Cc1sc(N(CCC(=O)O)Cc2ccccc2)nc1-c1ccc(-c2ccc(F)cc2)c(Cl)c1 [US11753403, Compound I-104] | > 6.00
10 | NC(=O)c1sc(N(CCC(=O)O)Cc2ccccc2)nc1-c1ccc(Cl)c(Cl)c1 [US11753403, Compound I-124] | < 5.00
